Consider 27 compounds from patent publication US8741934B2, “Inhibitors of ion channels” (Pfizer Limited, priority 2007, dated 2014).

The target in one experiment is T1, hSCN3A sodium channels (Homo sapiens, UniProt Q9NY46).
T1 construct: expressed in transfected cells
T1 sequence (Q9NY46 whole entry): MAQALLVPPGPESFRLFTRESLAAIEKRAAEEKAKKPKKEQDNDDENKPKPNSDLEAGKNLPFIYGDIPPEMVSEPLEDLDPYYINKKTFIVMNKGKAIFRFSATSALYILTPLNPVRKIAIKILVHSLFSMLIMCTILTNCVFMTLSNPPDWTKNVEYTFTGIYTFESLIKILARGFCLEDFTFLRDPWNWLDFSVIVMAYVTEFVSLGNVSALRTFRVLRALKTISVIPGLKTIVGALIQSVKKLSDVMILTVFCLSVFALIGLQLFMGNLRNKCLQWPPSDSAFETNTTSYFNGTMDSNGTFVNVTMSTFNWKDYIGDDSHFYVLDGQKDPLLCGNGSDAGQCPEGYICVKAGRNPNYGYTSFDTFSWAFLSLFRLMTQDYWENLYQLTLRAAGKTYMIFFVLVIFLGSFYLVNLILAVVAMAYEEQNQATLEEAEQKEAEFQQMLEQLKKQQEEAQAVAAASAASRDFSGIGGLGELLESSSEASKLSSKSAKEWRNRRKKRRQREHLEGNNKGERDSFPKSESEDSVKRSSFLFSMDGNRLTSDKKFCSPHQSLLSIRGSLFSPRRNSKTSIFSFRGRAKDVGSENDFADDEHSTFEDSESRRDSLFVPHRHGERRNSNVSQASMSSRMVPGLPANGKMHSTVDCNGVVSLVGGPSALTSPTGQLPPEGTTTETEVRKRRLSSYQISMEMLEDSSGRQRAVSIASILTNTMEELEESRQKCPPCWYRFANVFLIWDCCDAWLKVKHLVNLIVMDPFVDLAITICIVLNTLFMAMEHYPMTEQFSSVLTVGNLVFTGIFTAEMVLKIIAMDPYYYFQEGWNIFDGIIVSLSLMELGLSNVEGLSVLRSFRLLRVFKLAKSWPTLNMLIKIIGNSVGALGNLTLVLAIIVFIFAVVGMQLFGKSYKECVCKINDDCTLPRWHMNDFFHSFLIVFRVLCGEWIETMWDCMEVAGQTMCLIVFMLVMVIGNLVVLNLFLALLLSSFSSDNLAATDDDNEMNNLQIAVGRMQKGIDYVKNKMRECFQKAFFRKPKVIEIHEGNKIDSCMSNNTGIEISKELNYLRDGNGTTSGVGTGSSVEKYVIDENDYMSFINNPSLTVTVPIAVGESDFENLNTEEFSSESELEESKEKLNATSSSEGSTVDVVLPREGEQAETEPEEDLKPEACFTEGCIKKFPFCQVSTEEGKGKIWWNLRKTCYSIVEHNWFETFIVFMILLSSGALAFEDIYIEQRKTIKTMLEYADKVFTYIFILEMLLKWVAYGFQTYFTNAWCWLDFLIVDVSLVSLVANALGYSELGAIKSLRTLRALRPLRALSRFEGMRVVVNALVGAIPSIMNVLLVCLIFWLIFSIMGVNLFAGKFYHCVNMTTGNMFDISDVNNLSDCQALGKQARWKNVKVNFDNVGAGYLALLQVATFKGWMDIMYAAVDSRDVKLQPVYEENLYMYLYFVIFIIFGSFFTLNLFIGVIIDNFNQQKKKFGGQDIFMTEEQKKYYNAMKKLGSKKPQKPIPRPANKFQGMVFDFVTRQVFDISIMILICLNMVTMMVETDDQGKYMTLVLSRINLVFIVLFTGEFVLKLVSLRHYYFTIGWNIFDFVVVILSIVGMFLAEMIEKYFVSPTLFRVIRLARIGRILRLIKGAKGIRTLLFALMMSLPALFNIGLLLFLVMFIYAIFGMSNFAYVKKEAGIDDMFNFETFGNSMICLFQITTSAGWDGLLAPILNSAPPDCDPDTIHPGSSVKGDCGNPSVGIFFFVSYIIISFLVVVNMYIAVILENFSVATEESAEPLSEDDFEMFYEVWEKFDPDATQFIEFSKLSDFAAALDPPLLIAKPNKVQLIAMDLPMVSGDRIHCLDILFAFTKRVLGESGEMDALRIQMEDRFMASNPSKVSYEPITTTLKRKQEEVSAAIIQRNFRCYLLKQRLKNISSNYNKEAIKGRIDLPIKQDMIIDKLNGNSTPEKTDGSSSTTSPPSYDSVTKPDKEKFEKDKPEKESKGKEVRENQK
Kind of experiment: hSCN3A electrophysiology, whole-cell patch-clamp or PatchXpress 7000, estimated IC-50 (Table B). It counts as cell-based.
Details: not given
Summed up: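 A 20 msec test pulse to 0 mV followed an 8 sec conditioning prepulse at each cell's measured V1/2. Room-temperature (22-24° C) recordings on HEK cells stably expressing the channel, conventional or PatchXpress.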
With `O=C(NCc1ccc(C(F)(F)F)cc1)c1cccc(S(=O)(=O)Nc2nncs2)c1` [Example 350, 3-[(1,3,4-Thiadiazol-2-ylamino)sulfonyl]-N-[4-(trifluoromethyl)benzyl]benzamide], the IC50 was above 10000 nM.

The same experiment, now with this note: estimated IC-50; hSCN3A cells, whole-cell patch-clamp or PatchXpress 7000; read-out: SCN3A EIC-50.
In the case of `O=C(NCc1ccc(OC(F)(F)F)c(F)c1)c1ccc(S(=O)(=O)Nc2ncns2)cc1` [Example 321, N-[3-fluoro-4-(trifluoromethoxy)benzyl]-4-[(1,2,4-thiadiazol-5-ylamino)sulfonyl]benzamide], the IC50 is 40 nM.
The same measure, in the same setting: the result for `Cc1nc(NS(=O)(=O)c2ccc(C(=O)NCc3ccc(C(F)(F)F)cc3)cc2)cs1` [Example 15, 4-{[(2-Methyl-1,3-thiazol-4-yl)amino]sulfonyl}-N-[4-(trifluoromethyl)benzyl]benzamide] reads 31000 nM.
On the same count and under the same terms, the result for `O=C(NCc1ccc(C(F)(F)F)cc1)c1ccc(S(=O)(=O)Nc2cnoc2)cc1` [Example 23, 4-[(Isoxazol-4-ylamino)sulfonyl]-N-[4-(trifluoromethyl)benzyl]benzamide] reads 23300 nM.
The same measure, in the same setting: the result for `O=C(NCc1ccc(Cl)c(Cl)c1)c1ccc(S(=O)(=O)Nc2nccs2)c(F)c1` [Example 297, N-(3,4-dichlorobenzyl)-3-fluoro-4-[(1,3-thiazol-2-ylamino)sulfonyl]benzamide] reads 60 nM.
As for `O=C(NCc1ccc(C(F)(F)F)c(F)c1)c1ccc(S(=O)(=O)Nc2ncns2)cc1` [Example 323, N-[3-fluoro-4-(trifluoromethyl)benzyl]-4-[(1,2,4-thiadiazol-5-ylamino)sulfonyl]benzamide], the IC50 was 190 nM.
Turning to `O=C(NCc1ccc(C(F)(F)F)cc1F)c1ccc(S(=O)(=O)Nc2nccs2)cc1` [Example 397, N-[2-fluoro-4-(trifluoromethyl)benzyl]-4-[(1,3-thiazol-2-ylamino)sulfonyl] benzamide], the IC50 was 220 nM.
Still for that read-out and setting: the result for `O=C(NC1CCc2ccccc21)c1ccc(S(=O)(=O)Nc2nccs2)cc1` (stereo not drawn) [Example 158, N-(2,3-dihydro-1H-inden-1-yl)-4-[(1,3-thiazol-2-ylamino)sulfonyl]benzamide] reads 2390 nM; that for `O=C(c1ccc(S(=O)(=O)Nc2nccs2)cc1)N1CCC(O)(c2ccc(Cl)cc2)CC1` [Example 236, 4-{[4-(4-Chlorophenyl)-4-hydroxypiperidin-1-yl]carbonyl}-N-1,3-thiazol-2-ylbenzenesulfonamide], 3110 nM; that for `COc1ccccc1CNC(=O)c1ccc(S(=O)(=O)Nc2nccs2)cc1` [Example 174, N-(2-methoxybenzyl)-4-[(1,3-thiazol-2-ylamino)sulfonyl]benzamide], 3970 nM.
Same read-out and setting: the result for `COc1ccccc1CCNC(=O)c1ccc(S(=O)(=O)Nc2nccs2)cc1` [Example 165, N-[2-(2-methoxyphenyl)ethyl]-4-[(1,3-thiazol-2-ylamino)sulfonyl]benzamide] reads 4180 nM; that for `O=C(NCc1ccc(F)c(OC(F)(F)F)c1)c1ccc(S(=O)(=O)Nc2ncc(Cl)s2)c(Cl)c1` [Example 367, 3-Chloro-4-{[(5-chloro-1,3-thiazol-2-yl)amino]sulfonyl}-N-[4-fluoro-3-(trifluoromethoxy)benzyl]benzamide], 1510 nM; that for `COc1ccc(NC(=O)c2ccc(S(=O)(=O)Nc3nccs3)cc2)cn1` [Example 177, N-(6-methoxypyridin-3-yl)-4-[(1,3-thiazol-2-ylamino)sulfonyl]benzamide], 5670 nM.
On the same count and under the same terms, the result for `O=C(Nc1ccn(Cc2ccc(Cl)cc2)n1)c1ccc(S(=O)(=O)Nc2ncc(Cl)s2)c(F)c1` [Example 380, N-[1-(4-chlorobenzyl)-1H-pyrazol-3-yl]-4-{[(5-chloro-1,3-thiazol-2-yl)amino]sulfonyl}-3-fluorobenzamide] reads 170 nM; that for `O=C(NCc1cccc(C(F)(F)F)c1)c1ccc(S(=O)(=O)Nc2ncc(Cl)s2)c(Cl)c1` [Example 372, 3-Chloro-4-{[(5-chloro-1,3-thiazol-2-yl)amino]sulfonyl}-N-[3-(trifluoromethyl)benzyl] benzamide], 2260 nM.
`O=C(NCc1ccc(C(F)(F)F)cc1)c1ccc(S(=O)(=O)Nc2nc[nH]n2)cc1` [Example 390, 4-[(1H-1,2,4-triazol-3-ylamino)sulfonyl]-N-[4-(trifluoromethyl)benzyl]benzamide]: the IC50 is 9950 nM.
The same measure, in the same setting: the result for `O=C(NCc1ccc(Cl)c(F)c1)c1ccc(S(=O)(=O)Nc2ncc(Cl)s2)c(Cl)c1` [Example 369, 3-Chloro-N-(4-chloro-3-fluorobenzyl)-4-{[(5-chloro-1,3-thiazol-2-yl)amino]sulfonyl} benzamide] reads 6170 nM.
As for `O=C(NCc1ccc(C(F)(F)F)c(F)c1)c1ccc(S(=O)(=O)Nc2nccs2)cn1` [Example 340, N-[3-fluoro-4-(trifluoromethyl)benzyl]-5-[(1,3-thiazol-2-ylamino)sulfonyl]pyridine-2-carboxamide], the IC50 was 280 nM.
As for `O=C(NCc1ccc(F)c(OC(F)(F)F)c1)c1ccc(S(=O)(=O)Nc2nccs2)c(Cl)c1` [Example 293, 3-Chloro-N-[4-fluoro-3-(trifluoromethoxy)benzyl]-4-[(1,3-thiazol-2-yl-amino)sulfonyl]benzamide], the IC50 is 2320 nM.
The same measure, in the same setting: the result for `O=C(NCc1ccc(C(F)(F)F)cc1)c1ccc(S(=O)(=O)Nc2nccs2)cn1` [Example 342, 5-[(1,3-Thiazol-2-ylamino)sulfonyl]-N-[4-(trifluoromethyl)benzyl] pyridine-2-carboxamide] reads 510 nM.
Still for that read-out and setting: the result for `O=C(NCc1ccc(C(F)(F)F)cc1)c1ccc(S(=O)(=O)Nc2ncns2)cc1` [Example 20, 4-[(1,2,4-Thiadiazol-5-ylamino)sulfonyl]-N-[4-(trifluoromethyl)benzyl]benzamide] reads 260 nM; that for `O=C(NCc1ccc(C(F)(F)F)cc1)c1ccc(S(=O)(=O)Nc2nc(C(F)(F)F)cs2)cc1` [Example 4, N-[4-(Trifluoromethyl)benzyl]-4-({[4-(trifluoromethyl)-1,3-thiazol-2-yl]amino}sulfonyl)benzamide], 2530 nM; that for `O=C(c1ccc(S(=O)(=O)Nc2nccs2)cc1)N(Cc1ccccc1)[C@H]1CCCC[C@H]1CO` [Example 245, N-benzyl-N-[(1S,2R)-2-(hydroxymethyl)cyclohexyl]-4-[(1,3-thiazol-2-ylamino)sulfonyl]benzamide], 2220 nM.
Same read-out and setting: the result for `O=C(NCc1ccccc1OC(F)(F)F)c1ccc(S(=O)(=O)Nc2nccs2)cc1` [Example 78, 4-[(1,3-Thiazol-2-ylamino)sulfonyl]-N-[2-(trifluoromethoxy)benzyl]benzamide] reads 1630 nM; that for `O=C(NCc1cccs1)c1ccc(S(=O)(=O)Nc2nccs2)cc1` [Example 386, 4-[(1,3-Thiazol-2-ylamino)sulfonyl]-N-(2-thienylmethyl)benzamide], 3410 nM.
For the compound `O=C(NCc1ccc(C(F)(F)F)cc1)c1ccc(S(=O)(=O)Nc2nncs2)cc1` [Example 21, 4-[(1,3,4-Thiadiazol-2-ylamino)sulfonyl]-N-[4-(trifluoromethyl)benzyl]benzamide], the IC50 is 1970 nM.

Staying with this experiment, now noted: read-out: SCN3A EIC-50.
For the compound `O=C(NCc1ccc(C(F)(F)F)c(Cl)c1)c1ccc(S(=O)(=O)Nc2ncc(Cl)s2)cn1` [Example 346, 5-{[(5-Chloro-1,3-thiazol-2-yl)amino]sulfonyl}-N-[3-chloro-4-(trifluoromethyl)benzyl] pyridine-2-carboxamide], the IC50 is 70 nM.
